Active and inactive are the calls of the source. The calls are words filed in the database; no cut-off is given here.
Legend:
4T1 [1] = assay: Induction of ROS generation in mouse 4T1 cells at 3.12 uM incubated for 4 hrs followed by exposure to laser irradiation of 808 nm for 2 mins by DCFH-DA probe based CLSM; assay type: functional, cell-based; details: time 242.0 min
Mitochondrial membrane [2] = assay: Inhibition of mitochondrial membrane potential in mouse 4T1 cells at 3.12 uM incubated for 24 hrs by Rh123 probe based CLSM; assay type: cell membranes
[3] = Drug uptake in human HepG2 cells assessed as increase in fluorescence intensity at 3.12 uM incubated for 4 hrs by flow cytometry; assay type: ADME, cell-based; details: hepg2, 4 h
4T1 [4] = assay: Induction of apoptosis in mouse 4T1 cells at 3.12 uM incubated for 4 hrs followed by exposure to laser irradiation of 808 nm for 2 mins by Annexin V-FITC/PI staining based flow cytometry; assay type: functional, cell-based; details: time 242.0 min
[5] = Drug excretion in female BALB/c mouse bearing mouse 4T1 cells at 2.5 mg/kg, iv measured up to 12 hrs by fluorescence imaging analysis; assay type: ADME, organism-based; details: in vivo
[6] = Toxicity in ICR mouse bearing mouse H22 cells assessed as damage in spleen at 2.5 mg/kg, iv pretreated for 4 hrs followed by exposure to laser irradiation of 808 nm for 5 mins on every 2 days treated for 15 days by H and E staining based analysis; assay type: organism-based; details: in vivo, 360 h, time 15 day
[7] = Toxicity in ICR mouse bearing mouse H22 cells assessed as damage in heart at 2.5 mg/kg, iv pretreated for 4 hrs followed by exposure to laser irradiation of 808 nm for 5 mins on every 2 days treated for 15 days by H and E staining based analysis; assay type: organism-based; details: in vivo, 360 h, time 15 day
HepG2 [8] = assay: Induction of ROS generation in human HepG2 cells at 3.12 uM incubated for 4 hrs followed by exposure to laser irradiation of 808 nm for 2 mins by flow cytometry; assay type: functional, cell-based; details: time 242.0 min
[9] = Drug uptake in human HepG2 cells assessed as increase in fluorescence intensity at 3.12 uM incubated for 4 hrs by CLSM; assay type: ADME, cell-based; details: hepg2, 4 h
[10] = Cytotoxicity against mouse NIH3T3 cells assessed as survival rate at 25 uM relative to control; assay type: toxicity, cell-based; details: read-out: Survival
Mitochondrial membrane [11] = assay: Inhibition of mitochondrial membrane potential in human HepG2 cells at 3.12 uM incubated for 24 hrs by flow cytometry; assay type: cell membranes
[12] = Biodistribution in liver of female BALB/c mouse bearing mouse 4T1 cells at 2.5 mg/kg, iv measured up to 12 hrs by fluorescence imaging analysis; assay type: ADME, organism-based; details: in vivo
HepG2 [13] = assay: Induction of ROS generation in human HepG2 cells at 3.12 uM incubated for 4 hrs followed by exposure to laser irradiation of 808 nm for 2 mins by DCFH-DA probe based CLSM; assay type: functional, cell-based; details: time 242.0 min
[14] = Drug uptake in mouse 4T1 cells assessed as increase in fluorescence intensity at 3.12 uM incubated for 4 hrs by CLSM; assay type: ADME, cell-based; details: 4t1, 4 h
Mitochondrial membrane [15] = assay: Inhibition of mitochondrial membrane potential in human HepG2 cells at 3.12 uM preincubated for 4 hrs followed by exposure to laser irradiation of 808 nm for 2 mins and subsequent incubation for 20 hrs by flow cytometry; assay type: cell membranes; details: time 1442.0 min
HepG2 [16] = assay: Cytotoxicity against human HepG2 cells assessed as cell viability under dark condition up to 25 uM incubated for 24 hrs by MTT assay relative to control; assay type: functional
[17] = Photosensitizing property of compound assessed as generation of singlet-state oxygen by ESR spectrometry; assay type: functional
[18] = Photothermal stability of compound at 60 degreeC at 20 uM exposed to laser irradiation of 808 nm for 2.5 mins; assay type: physicochemical
[19] = Drug uptake in mouse 4T1 cells assessed as increase in fluorescence intensity at 3.12 uM incubated for 4 hrs by flow cytometry; assay type: ADME, cell-based; details: 4t1, 4 h
[20] = Photosensitizing property of compound assessed as generation of singlet-state oxygen at 10 uM exposed to laser irradiation of 808 nm for 2 mins by SOSG probe based analysis; assay type: functional
4T1 [21] = assay: Induction of ROS generation in mouse 4T1 cells at 3.12 uM incubated for 4 hrs followed by exposure to laser irradiation of 808 nm for 2 mins by flow cytometry; assay type: functional, cell-based; details: time 242.0 min
Mitochondrial membrane [22] = assay: Inhibition of mitochondrial membrane potential in mouse 4T1 cells at 3.12 uM incubated for 24 hrs by flow cytometry; assay type: cell membranes
Mitochondrial membrane [23] = assay: Inhibition of mitochondrial membrane potential in mouse 4T1 cells at 3.12 uM preincubated for 4 hrs followed by exposure to laser irradiation of 808 nm for 2 mins and subsequent incubation for 20 hrs by flow cytometry; assay type: cell membranes; details: time 1442.0 min
Mitochondrial membrane [24] = assay: Inhibition of mitochondrial membrane potential in mouse 4T1 cells at 3.12 uM preincubated for 4 hrs followed by exposure to laser irradiation of 808 nm for 2 mins and subsequent incubation for 20 hrs by Rh123 probe based CLSM; assay type: cell membranes; details: time 1442.0 min
HepG2 [25] = assay: Induction of apoptosis in human HepG2 cells at 3.12 uM incubated for 4 hrs followed by exposure to laser irradiation of 808 nm for 2 mins by Annexin V-FITC/PI staining based flow cytometry; assay type: functional, cell-based; details: time 242.0 min
Mitochondrial membrane [26] = assay: Inhibition of mitochondrial membrane potential in human HepG2 cells at 3.12 uM preincubated for 4 hrs followed by exposure to laser irradiation of 808 nm for 2 mins and subsequent incubation for 20 hrs by Rh123 probe based CLSM; assay type: cell membranes; details: time 1442.0 min
4T1 [27] = assay: Antitumor activity against mouse 4T1 cells implanted in female BALB/c mouse assessed as nuclei rupture at 2.5 mg/kg, iv pretreated for 4 hrs followed by exposure to laser irradiation of 808 nm for 5 mins on every 2 days treated for 15 days by H and E staining based analysis; assay type: functional, organism-based; details: time 15.0 day
[28] = Photothermal property of compound assessed as increase in photothermal conversion efficiency at 20 uM exposed to laser irradiation of 808 nm for 2 mins; assay type: functional
Mitochondrial membrane [29] = assay: Inhibition of mitochondrial membrane potential in human HepG2 cells at 3.12 uM incubated for 24 hrs by Rh123 probe based CLSM; assay type: cell membranes
[30] = Toxicity in female BALB/c mouse bearing mouse 4T1 cells assessed as damage in spleen at 1.8 mg/kg, iv pretreated for 4 hrs followed by exposure to laser irradiation of 808 nm for 5 mins on every 2 days treated for 15 days by H and E staining based analysis; assay type: organism-based; details: in vivo, 360 h, time 15 day
[31] = Biodistribution in liver of female BALB/c mouse bearing mouse 4T1 cells at 1.8 mg/kg, iv measured up to 12 hrs by fluorescence imaging analysis; assay type: ADME, organism-based; details: in vivo
4T1 [32] = assay: Antitumor activity against mouse 4T1 cells implanted in female BALB/c mouse assessed as tumor growth inhibition at 1.8 mg/kg, iv pretreated for 4 hrs followed by exposure to laser irradiation of 808 nm for 5 mins on every 2 days treated for 15 days; assay type: functional, organism-based; details: time 15.0 day
4T1 [33] = assay: Photothermal cytotoxicity against mouse 4T1 cells up to 25 uM preincubated for 4 hrs followed by exposure to laser irradiation of 808 nm for 2 mins and subsequent incubation for 20 hrs by MTT assay; assay type: functional, cell-based
[34] = Toxicity in ICR mouse bearing mouse H22 cells assessed as damage in kidney at 1.8 mg/kg, iv pretreated for 4 hrs followed by exposure to laser irradiation of 808 nm for 5 mins on every 2 days treated for 15 days by H and E staining based analysis; assay type: organism-based; details: in vivo, 360 h, time 15 day

Compound | Activity (4T1 [1]) | inhibition (Mitochondrial membrane [2]) | Drug uptake [3] | Activity (4T1 [4]) | Activity (HepG2 [8]) | Drug uptake [9] | viability at 25 µM [10] [%] | inhibition (Mitochondrial membrane [11]) | Activity (HepG2 [13]) | Drug uptake [14] | inhibition (Mitochondrial membrane [15]) | Activity [17] | Stability [18] | Drug uptake [19] | Activity [20] | Activity (4T1 [21]) | inhibition (Mitochondrial membrane [22]) | inhibition (Mitochondrial membrane [23]) | inhibition (Mitochondrial membrane [24]) | Activity (HepG2 [25]) | other results
COCCOCCOCCN1/C(=C/C=C/C(=C/C=C/C2=[N+](CCOCCOCCOC)c3ccccc3C2(C)C)C(=O)OC)C(C)(C)c2ccccc21.[I-] | Active; Exhibited Only A Smaller Increase In Activity | Active; Certain Degree Of Inhibition Was Observed | Active | Active | Active; Exhibited Only A Smaller Increase In Activity | Active | > 60 | Active; Certain Degree Of Inhibition Was Observed | Active; Exhibited Only A Smaller Increase In Activity | Active | Active; Significant Inhibition Was Observed | Active | Stable | Active | Active | Active; Exhibited Only A Smaller Increase In Activity | Active; Certain Degree Of Inhibition Was Observed | Active; Significant Inhibition Was Observed | Active; Significant Inhibition Was Observed | Active | Drug excretion [5]: Active; Activity [6]: Non-toxic; Activity [7]: Non-toxic; Drug uptake [12]: Active; Activity (HepG2 [16]): 55%; inhibition (Mitochondrial membrane [26]): Active; Significant Inhibition Was Observed; Activity (4T1 [27]): Active; Activity [28]: Active; Highest Efficiency Observed Among Tested Compounds; inhibition (Mitochondrial membrane [29]): Active; Certain Degree Of Inhibition Was Observed
COC(=O)C(=C\C=C\C1=[N+](C)c2ccccc2C1(C)C)/C=C/C=C1/N(C)c2ccccc2C1(C)C.[I-] | Active | Active; Certain Degree Of Inhibition Was Observed | Active | Active | Active | Active | > 60 | Active; Certain Degree Of Inhibition Was Observed | Active | Active | Active; Significant Inhibition Was Observed | Active | Unstable | Active | inactive | Active | Active; Certain Degree Of Inhibition Was Observed | Active; Significant Inhibition Was Observed | Active; Significant Inhibition Was Observed | Active | Activity [30]: Non-toxic; Drug uptake [31]: Active; inhibition (4T1 [32]): Active; Minimal Effect Was Observed; Activity (4T1 [33]): Not active; Limited Photo-Thermal Toxicity Was Observed; Activity [34]: Non-toxic; inhibition (Mitochondrial membrane [26]): Active; Significant Inhibition Was Observed; Activity [28]: Not active; Lowest Efficiency Observed Among Tested Compounds; inhibition (Mitochondrial membrane [29]): Active; Certain Degree Of Inhibition Was Observed
